Measurements taken from US9221761B2, “Method for inhibition of deubiquitinating activity” (Vivolux AB, priority 2011, dated 2015).

Tests used:
HCT116 = assay: FMCA (Fluorometric Microculture Cytotoxicity Assay) cytotoxicity; format: cell-based; settings: for IC50: 72 hours of continuous compound exposure; for cytotoxicity relative to structurally corresponding compounds with a 6-membered ring moiety: HCT-116, 72 hours, survival index, FIGS. 3b, 3d, 3f
Method: FIGS. 1a to 1o are diagrams illustrating induction of dose-dependent cytotoxicity after 72 hours of continuous compound exposure to the reporter cell line HCT-116 by embodiments of the compound of the invention, as measured FMCA (Fluorometric Microculture Cytotoxicity Assay), as well as absence of such induction by structurally related compounds not comprised by the invention. Treated cells were compared to untreated controls (survival index);
Determination of cell apoptosis and viability. For determination of apoptosis parental HCT-116 p53+/+ cells are treated with the increasing doses of the compound of the invention for 24 h. […] HCT-116 cells are seeded in 96-well microtiter plates at 10,000 cells per well and incubated overnight. Cells are treated with indicated drug for 24 h. At the end of the incubation period, NP40 is added to the tissue culture medium to 0.1% and 25 μl of the content of each well was assayed using the M30-Apoptosense® ELISA as previously described (31). Cell viability is determined by measuring acid phosphatase activity or using the FMCA method (32). For the acid phosphatase activity cells are seeded at 5000 cells per well in 96-well culture plates and incubated for 12 h at 37° C. Compounds are added to the cells in growth media and incubated for 72 h at 37° C. Cells are washed with 200 μl warm PBS. 100 μl of para-nitrophenyl phosphate (pNPP, 2 mg/ml) in Na acetate buffer pH 5 (NaAc 0.1 M, 0.1% Triton-X-100) is added per well. Cells are incubated for 2 h after which reaction was stopped by addition of 1N NaOH. Absorbance is measured at 405 nm. The dose-dependent cytotoxicity of a number of embodiments of the compound of the invention is illustrated in FIGS. 1a-1o.
For the FMCA assay cells are seeded in the drug-prepared 384-well plates using the pipetting robot Precision 2000 (Bio-Tek Instruments Inc., Winooski, Vt.). The plates are incubated for 72 h and then transferred to an integrated HTS SAIGAN Core System consisting of an ORCA robot (Beckman Coulter) with CO2 incubator (Cytomat 2C, Kendro, Sollentuna, Sweden), dispenser module (Multidrop 384, Titertek, Huntsville, Ala.), washer module (ELx 405, Bio-Tek Instruments Inc), delidding station, plate hotels, barcode reader (Beckman Coulter), liquid handler (Biomek 2000, Beckman Coulter) and a multipurpose reader (FLUOstar Optima, BMG Labtech GmbH, Offenburg, Germany) for automated FMCA. Survival index (SI) is defined as the fluorescence of test wells in percentage of controls with blank values subtracted.
FIGS. 3b, 3d, 3f are diagrams illustrating the cytotoxicity of compounds of the invention nos. 1546, 1547, and 1570 with a 7-membered ring moiety in comparison to structurally corresponding compounds not comprised by the invention with a 6-membered ring moiety. Their induction of dose-dependent cytotoxicity was determined after 72 hours of continuous compound exposure to the reporter cell line HCT-116. Treated cells were compared with untreated controls. Cytotoxicity is visualized as survival index (SI) over the range of about 90% SI to about 0% SI in dependence on compound concentration.

[1] = test system: MelJuSo Ub-YFP reporter cell line; assay: Proteasome inhibition in reporter cell line, YFP accumulation in IncuCyte-FLR; format: cell-based; settings: YFP accumulation measured for 48 hours; for MeJuSo-UB, lowest effective conc.: Table 2; for MeJuSo-UB, IncuCyte lowest effective conc.: Table 1
From the text: Cell culture. MCF7 cells are maintained in MEM/10% fetal calf serum. HCT-116 p53+/+, p53−/−, Bcl-2+/+, PUMA−/− and BAX−/− cells are maintained in McCoy's 5A modified medium/10% fetal calf serum. The HCT-116 p53+/+, p53−/−, PUMA−/− and BAX−/− are generated as described (25). The HCT-116 Bcl-2+/+ cell line was generated by transfecting parental HCT-116 p53+/+ cells with pCEP4 Bcl-2 (Addgene plasmid 16461) (26) and isolating high expression clones. FaDu and LLC3 cells are maintained in DMEM high glucose medium supplemented with 10% fetal calf serum, Na pyruvate, Hepes and non-essential amino acids. 4T1.12B carcinoma cells are maintained in RPMI medium supplemented with 10% fetal calf serum. The proteasome reporter cell line MelJuSo Ub-YFP was generated as described (12). Cells were maintained in Dulbecco's Modified Eagle's Medium/10% fetal calf serum. […] The retinal epithelial cell line was generated as described (28). All cells are maintained at 37° C. in 5% CO2.
The compound of the invention induces proteasome inhibition. The reporter cell line MelJuSo Ub-YFP, which is engineered to accumulate yellow fluorescent protein (YFP) upon proteasome inhibition (12), was used for compound evaluation. The accumulation of YFP was measured for 48 hours in an IncuCyte-FLR system (Essen Bioscience, Essen, UK), which is an automated fluorescence microscope. Numbers of positive cells per field were used as a measure of proteasome inhibition.

[2] = Dissolution in 25% by weight Kolliphor HS15; format: physicochemical; settings: for amount of compound contained in prepared solution (10 ml): 18 mg starting weight, 25% w/w Kolliphor HS15, ultrasound about 50° C., non-dissolved residue deducted
Method: Pharmaceutical composition E (solution). For intraperitoneal administration a 25% by weight Kolliphor HS15 stock solution was prepared by melting an entire container of Kolliphor HS15 (Sigma 42966) by warming to 60° C. and diluting with deionized water to 25% w/w. To compound #1570 (18.0 mg) in a 10 mL sample tube was added 10.0 mL of the stock solution and the tube vortexed, treated with ultrasound at about 50° C. for about 2 h, and occasionally heated to about 83° C. […] By the same procedure solutions of compounds #1546 and #1571 were prepared; these compounds were however not fully dissolved. The non-dissolved residue was weighed, and the weight deducted from the starting weight of compound (18 mg).

SMILES	IC50 (HCT116; Table 2)	MeJuSo-UB, lowest effective conc. [1]	MeJuSo-UB, IncuCyte lowest effective conc. [1]	IC50 (HCT116; Table 1)	also measured
CC(=O)N1CCC(=Cc2ccc(F)c([N+](=O)[O-])c2)C(=O)C(=Cc2ccc(F)c([N+](=O)[O-])c2)C1 [Compound 1571]	900 nM	0.25 µM	–	–	amount of compound contained in prepared solution (10 ml) [2]: 11.0 mg
C=CC(=O)N1CCC(=Cc2ccc([N+](=O)[O-])cc2)C(=O)C(=Cc2ccc([N+](=O)[O-])cc2)C1 [Compound 1546]	1200 nM	2 µM	–	–	cytotoxicity relative to structurally corresponding compounds with a 6-membered ring moiety (HCT116): more cytotoxic; amount of compound contained in prepared solution (10 ml) [2]: 8.5 mg
C=CC(=O)N1CCC(=Cc2ccc(F)c([N+](=O)[O-])c2)C(=O)C(=Cc2ccc(F)c([N+](=O)[O-])c2)C1 [Compound 1570]	500 nM	0.25 µM	–	–	cytotoxicity relative to structurally corresponding compounds with a 6-membered ring moiety (HCT116): more cytotoxic; dissolution of 18.0 mg in 10.0 mL stock solution ([2]; 25% w/w Kolliphor HS15, ultrasound about 50° C. about 2 h): clear solution
CCCN1CC/C(=C\c2ccc(F)cc2)C(=O)/C(=C/c2ccc(F)cc2)C1 [Compound 1574, (3E,5E)-3,5-bis[(4-fluorophenyl)methylidene]-1-propylazepan-4-one]	–	–	0.5 µM	–	IC50 (HCT116; Homo sapiens, HCT-116, Table 1): 2800 nM
CC(=O)OCCC(=O)N1CCC(=Cc2ccc(F)c([N+](=O)[O-])c2)C(=O)C(=Cc2ccc(F)c([N+](=O)[O-])c2)C1 [Compound 1662]	2100 nM	1 µM	–	–	–
C=CC(=O)N1CCC(=Cc2ccc(F)cc2)C(=O)C(=Cc2ccc(F)cc2)C1 [Compound 1569]	2000 nM	4 µM	–	–	–
CN1CCC(=Cc2ccc(F)c(F)c2)C(=O)C(=Cc2ccc(F)c(F)c2)C1 [Compound 1610]	–	–	1 µM	1700 nM	–
CN1CCC(=Cc2ccc(C(F)(F)F)cc2)C(=O)C(=Cc2ccc(C(F)(F)F)cc2)C1 [Compound 1617]	–	–	1 µM	1600 nM	–
COc1ccc(C=C2CN(C)CCC(=Cc3ccc(Cl)cc3)C2=O)cc1 [Compound 1590]	–	–	1 µM	2000 nM	–
N#Cc1cc(C=C2CCNCC(=Cc3ccc(F)c(C#N)c3)C2=O)ccc1F [Compound 1623]	–	–	0.5 µM	1000 nM	–
N#Cc1ccc(C=C2CCNCC(=Cc3ccc(C#N)cc3)C2=O)cc1 [Compound 1625]	–	–	0.5 µM	900 nM	–
C=CC(=O)N1CCC(=Cc2ccc(F)cc2)C(=O)C(=Cc2ccc(F)cc2)C1 [Compound 1568]	1500 nM	2 µM	–	–	–
O=C1C(=Cc2ccc(F)cc2)CCNCC1=Cc1ccc(F)cc1 [Compound 1561]	–	–	1 µM	1000 nM	–
CC(=O)OCC(=O)N1CC/C(=C\c2ccc(C(F)(F)F)cc2)C(=O)/C(=C/c2ccc(C(F)(F)F)cc2)C1 [Compound 1642]	1200 nM	1 µM	–	–	–
CN1CCC(=Cc2ccc(F)c([N+](=O)[O-])c2)C(=O)C(=Cc2ccc(F)c([N+](=O)[O-])c2)C1 [Compound 1565]	–	–	0.5 µM	1500 nM	–
COc1ccc(C=C2CN(C(C)=O)CCC(=Cc3ccc(F)cc3)C2=O)cc1 [Compound 1578]	7000 nM	8 µM	–	–	–
O=C1C(=Cc2ccc(F)cc2)CCNCC1=Cc1ccc([N+](=O)[O-])cc1 [Compound 1585]	–	–	2 µM	1500 nM	–
CC(=O)OCCC(=O)N1CCC(=Cc2ccc(Cl)cc2)C(=O)C(=Cc2ccc(Cl)cc2)C1 [Compound 1633]	2200 nM	4 µM	–	–	–
CN1CCC(=Cc2ccc(C(F)(F)F)c(F)c2)C(=O)C(=Cc2ccc(C(F)(F)F)c(F)c2)C1 [Compound 1624]	–	–	1 µM	1800 nM	–
CN1CCC(=Cc2ccc(F)c(C#N)c2)C(=O)C(=Cc2ccc(F)c(C#N)c2)C1 [Compound 1618]	–	–	0.5 µM	1500 nM	–
